The results in this text go back to ChEMBL document CHEMBL1201862, “PubChem BioAssay data set” (2004).

Assay [1] deals with T1, Aspartyl aminopeptidase (Plasmodium falciparum 3D7, UniProt Q8I2J3).
T1 sequence (Q8I2J3 whole entry): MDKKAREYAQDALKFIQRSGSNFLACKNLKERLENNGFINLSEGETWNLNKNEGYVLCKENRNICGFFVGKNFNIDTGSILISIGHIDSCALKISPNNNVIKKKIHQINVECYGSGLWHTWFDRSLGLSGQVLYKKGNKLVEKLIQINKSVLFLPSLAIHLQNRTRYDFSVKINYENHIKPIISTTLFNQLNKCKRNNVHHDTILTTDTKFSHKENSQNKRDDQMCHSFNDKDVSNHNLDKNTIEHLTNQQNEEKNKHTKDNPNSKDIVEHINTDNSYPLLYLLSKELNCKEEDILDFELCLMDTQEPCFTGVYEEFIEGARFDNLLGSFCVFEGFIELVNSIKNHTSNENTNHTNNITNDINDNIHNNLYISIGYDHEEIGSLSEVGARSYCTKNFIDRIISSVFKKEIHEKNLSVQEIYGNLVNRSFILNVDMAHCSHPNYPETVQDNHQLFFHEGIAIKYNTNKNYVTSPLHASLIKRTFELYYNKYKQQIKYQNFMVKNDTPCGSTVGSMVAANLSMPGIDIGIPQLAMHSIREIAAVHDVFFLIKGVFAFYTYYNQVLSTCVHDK

Assay [2] concerns the target T2, Leucine aminopeptidase (Plasmodium falciparum 3D7, UniProt Q8IL11).
T2 sequence (Q8IL11 whole entry): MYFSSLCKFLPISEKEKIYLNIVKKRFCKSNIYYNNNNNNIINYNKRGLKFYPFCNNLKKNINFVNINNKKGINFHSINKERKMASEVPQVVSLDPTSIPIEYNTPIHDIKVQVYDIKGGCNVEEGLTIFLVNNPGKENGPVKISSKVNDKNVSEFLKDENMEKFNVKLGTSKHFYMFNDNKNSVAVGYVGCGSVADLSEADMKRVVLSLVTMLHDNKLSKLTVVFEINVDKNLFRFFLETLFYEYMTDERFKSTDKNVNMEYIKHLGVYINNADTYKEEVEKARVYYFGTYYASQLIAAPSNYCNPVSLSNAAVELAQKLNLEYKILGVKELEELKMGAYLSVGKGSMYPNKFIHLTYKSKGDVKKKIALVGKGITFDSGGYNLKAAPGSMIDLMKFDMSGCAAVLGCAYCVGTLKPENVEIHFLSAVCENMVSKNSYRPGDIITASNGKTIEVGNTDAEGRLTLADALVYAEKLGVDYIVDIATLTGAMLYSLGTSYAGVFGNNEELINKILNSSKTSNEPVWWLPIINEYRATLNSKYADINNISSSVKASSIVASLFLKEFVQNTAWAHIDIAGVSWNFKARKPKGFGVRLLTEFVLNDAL
The assay is described as follows: P. falciparum M17LAP inhibitors, primary screen, biochemical, fluorogenic H-Leu-NHMec substrate, 1536-well (AID 1619). In kind it is functional.

Assay [3] has as its target Procathepsin L (Homo sapiens, UniProt P07711).
Assay [4] concerns the target Acyl-homoserine lactone acylase PvdQ (Pseudomonas aeruginosa (strain LESB58), UniProt Q9I194). The assay is described as follows: P. aeruginosa PvdQ acylase inhibitors, dose response, biochemical, fluorescence, plate reader and imaging, cherry-picks (AID 493231).
For assay [5], the target named is Cyclin-dependent kinase 5/CDK5 activator 1 (Homo sapiens, UniProt Q00535). The assay is described as follows: CDK5/p35 kinase inhibitors, dose response, biochemical, cherry-picked samples, set 2 (AID 504545).
Cyclin-dependent kinase 5/CDK5 activator 1, sequence (Q00535 whole entry): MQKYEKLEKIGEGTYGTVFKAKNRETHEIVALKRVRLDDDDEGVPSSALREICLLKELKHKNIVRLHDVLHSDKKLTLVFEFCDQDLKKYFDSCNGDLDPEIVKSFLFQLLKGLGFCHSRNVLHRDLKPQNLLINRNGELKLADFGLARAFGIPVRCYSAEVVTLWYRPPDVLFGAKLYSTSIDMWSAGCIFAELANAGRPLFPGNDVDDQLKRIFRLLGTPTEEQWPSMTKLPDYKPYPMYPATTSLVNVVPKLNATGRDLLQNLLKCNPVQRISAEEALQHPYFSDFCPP
Cyclin-dependent kinase 5/CDK5 activator 1, sequence (Q15078 whole entry, further chain): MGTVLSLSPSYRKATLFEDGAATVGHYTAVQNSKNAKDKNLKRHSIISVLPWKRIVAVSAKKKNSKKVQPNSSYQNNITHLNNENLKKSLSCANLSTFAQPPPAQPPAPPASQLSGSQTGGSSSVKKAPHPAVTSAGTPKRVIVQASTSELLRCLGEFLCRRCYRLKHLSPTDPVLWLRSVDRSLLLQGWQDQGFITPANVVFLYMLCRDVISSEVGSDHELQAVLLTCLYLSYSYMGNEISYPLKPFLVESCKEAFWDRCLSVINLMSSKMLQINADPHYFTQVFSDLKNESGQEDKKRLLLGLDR
For assay [6], the target named is T3, Polyadenylate-binding protein 1 (Homo sapiens, UniProt P11940). The assay is described as follows: PABP1 MLLE–PAM2 binding inhibitor potency, dose response, biochemical, fluorescence polarization, FITC-PAM2 peptide (AID 602259). In kind it is functional. The settings on record: read-out: IC50_Mean.
T3 sequence (P11940 whole entry): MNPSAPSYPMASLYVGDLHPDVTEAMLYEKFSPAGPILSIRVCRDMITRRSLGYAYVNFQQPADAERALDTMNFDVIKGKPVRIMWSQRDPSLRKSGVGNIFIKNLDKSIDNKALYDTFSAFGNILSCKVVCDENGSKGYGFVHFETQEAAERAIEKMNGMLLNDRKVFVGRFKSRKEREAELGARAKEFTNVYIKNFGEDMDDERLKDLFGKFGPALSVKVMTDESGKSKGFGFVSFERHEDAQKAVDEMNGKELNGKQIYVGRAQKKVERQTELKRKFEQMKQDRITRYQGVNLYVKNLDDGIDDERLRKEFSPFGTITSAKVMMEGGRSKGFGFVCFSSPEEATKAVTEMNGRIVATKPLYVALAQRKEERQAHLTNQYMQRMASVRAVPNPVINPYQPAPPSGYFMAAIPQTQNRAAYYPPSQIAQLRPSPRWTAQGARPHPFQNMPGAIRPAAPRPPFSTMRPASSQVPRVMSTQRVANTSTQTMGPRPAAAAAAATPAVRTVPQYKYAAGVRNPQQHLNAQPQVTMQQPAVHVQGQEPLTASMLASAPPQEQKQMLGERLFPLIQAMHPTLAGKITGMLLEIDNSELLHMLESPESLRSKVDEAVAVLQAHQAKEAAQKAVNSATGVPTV
The target of assay [7] is T3, Polyadenylate-binding protein 1. The assay is described as follows: PABP1 MLLE–PAM2 interaction inhibitors, dose response, miRNA deadenylation inhibitor project, biochemical, fluorescence polarization, Cy5-PAM2 peptide, secondary (AID 602260). In kind it is functional. The settings on record: read-out: IC50_Mean. In general terms: Polarisation of emitted light reports the rotation of a fluorescent probe.

The target of assay [8] is Protein Rev (Human immunodeficiency virus type 1 group M subtype B (isolate HXB2)(HIV-1), UniProt P04618). Description: inhibitors of Rev binding to RRE RNA, dose response, biochemical, fluorescence polarization, HIV-1 (AID 434976). The arrangement: species or system Human immunodeficiency virus 1.
Protein Rev, sequence (P04618 whole entry): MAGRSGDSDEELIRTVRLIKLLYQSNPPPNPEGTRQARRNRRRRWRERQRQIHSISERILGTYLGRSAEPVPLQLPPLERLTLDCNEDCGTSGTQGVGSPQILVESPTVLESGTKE
The target in assay [9] is Female germline-specific tumor suppressor gld-1 (Caenorhabditis elegans, UniProt Q17339). Description: inhibitors of GLD-1 binding to TGE RNA, dose response, biochemical, fluorescence polarization, C. elegans (AID 2802).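 Note: fluorescence polarization of labeled TGE RNA bound by purified gld-1 protein.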
Female germline-specific tumor suppressor gld-1, sequence (Q17339 whole entry): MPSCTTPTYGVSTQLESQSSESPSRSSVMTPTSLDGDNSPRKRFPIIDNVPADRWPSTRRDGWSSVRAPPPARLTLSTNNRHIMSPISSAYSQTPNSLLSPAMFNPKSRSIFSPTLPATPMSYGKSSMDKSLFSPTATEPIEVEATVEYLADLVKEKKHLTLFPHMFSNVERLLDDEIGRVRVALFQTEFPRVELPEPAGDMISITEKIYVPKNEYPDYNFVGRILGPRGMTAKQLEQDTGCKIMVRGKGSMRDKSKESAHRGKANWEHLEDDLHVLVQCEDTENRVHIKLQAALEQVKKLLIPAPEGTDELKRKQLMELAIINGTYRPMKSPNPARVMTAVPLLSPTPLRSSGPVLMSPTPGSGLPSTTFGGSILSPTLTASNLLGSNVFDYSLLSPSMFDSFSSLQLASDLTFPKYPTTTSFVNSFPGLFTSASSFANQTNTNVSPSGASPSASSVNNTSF
A short description of assay [10]: A cytotoxicity screen of small molecule inhibitors of the PhoP region in Salmonella typhi identified in the primary screen. [Related pubchem assays: 1850, 1864, 1985 ]. In kind it is functional.
For assay [11], the target named is T4, Bcl-2-like protein 10 (Homo sapiens, UniProt Q9HD36).
T4 sequence (Q9HD36 whole entry): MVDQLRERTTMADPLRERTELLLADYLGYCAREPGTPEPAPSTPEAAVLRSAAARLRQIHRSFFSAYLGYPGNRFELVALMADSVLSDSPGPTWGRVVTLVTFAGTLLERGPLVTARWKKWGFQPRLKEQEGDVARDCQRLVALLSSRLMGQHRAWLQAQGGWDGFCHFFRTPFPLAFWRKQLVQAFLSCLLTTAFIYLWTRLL
The assay is described as follows: displacers of TR3 peptide from Bcl-B, primary screen, selectivity assay for Bfl-1 inhibitor project, biochemical, fluorescence polarization, FITC-TR3 peptide (AID 748).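 Note: fluorescence polarization from a fluorescein-labelled TR3 peptide binding purified Bcl-B.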

Assay [12] deals with T5, DNA repair and recombination protein RAD54-like (Homo sapiens, UniProt Q92698).
T5 sequence (Q92698 whole entry): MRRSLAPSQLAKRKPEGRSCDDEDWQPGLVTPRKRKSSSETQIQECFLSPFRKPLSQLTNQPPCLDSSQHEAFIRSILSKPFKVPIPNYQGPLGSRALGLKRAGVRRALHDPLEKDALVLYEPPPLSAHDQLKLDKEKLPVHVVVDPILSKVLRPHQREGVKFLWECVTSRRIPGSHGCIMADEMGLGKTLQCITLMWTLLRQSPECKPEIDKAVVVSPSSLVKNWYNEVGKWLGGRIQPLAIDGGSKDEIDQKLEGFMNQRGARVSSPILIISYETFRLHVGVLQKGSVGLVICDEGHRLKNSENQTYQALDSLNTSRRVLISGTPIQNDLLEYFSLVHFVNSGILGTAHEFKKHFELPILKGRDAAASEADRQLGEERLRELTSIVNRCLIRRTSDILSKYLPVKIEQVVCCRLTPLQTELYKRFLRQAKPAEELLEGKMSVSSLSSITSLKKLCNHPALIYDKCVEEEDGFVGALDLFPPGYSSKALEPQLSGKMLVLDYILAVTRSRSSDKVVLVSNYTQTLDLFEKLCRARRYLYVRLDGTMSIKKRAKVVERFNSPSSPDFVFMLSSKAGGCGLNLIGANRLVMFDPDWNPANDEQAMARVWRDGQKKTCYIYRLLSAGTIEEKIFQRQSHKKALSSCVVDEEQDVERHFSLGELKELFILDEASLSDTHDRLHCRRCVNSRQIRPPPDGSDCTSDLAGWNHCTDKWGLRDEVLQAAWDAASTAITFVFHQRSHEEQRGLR
The assay is described as follows: inhibitors of human RAD54 branch migration, confirmation, biochemical, fluorescence, cherry-picked samples, dose series (AID 651657). In kind it is functional.

Assay [13] concerns the target Neurotensin receptor type 1 (Homo sapiens, UniProt P30989). In kind it is functional.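 Note: Image-based confirmatory dose-response assay measuring agonist activity at NTR1; NTR1-expressing U2OS osteosarcoma cells imaged for beta-arrestin GFP spot formation; agonist potency where compounds increase beta-arrestin recruitment.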
Assay [14] concerns the target Cytochrome P450 2C9 (Homo sapiens, UniProt P11712). The settings on record: Potency.
The target in assay [15] is Protein Tat (Human immunodeficiency virus type 1 group M subtype B (isolate HXB2)(HIV-1), UniProt P04608). In kind it is functional.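 Note: tat binding to TAR RNA read out by fluorescence polarization.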
Protein Tat, sequence (P04608 whole entry): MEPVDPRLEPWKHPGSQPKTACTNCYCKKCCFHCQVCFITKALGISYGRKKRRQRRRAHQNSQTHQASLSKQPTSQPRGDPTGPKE
Assay [16] can be described thus: THP-1 cell cytotoxicity, dose response, cytotoxicity control for Vif-APOBEC3G degradation inhibitor project, THP-1 cells (AID 1117359). The settings on record: Human immunodeficiency virus 1, THP-1. In kind it is functional.
Assay [17] addresses DNA dC->dU-editing enzyme APOBEC-3A (Homo sapiens, UniProt P31941). Description: Dose Response confirmation of small molecule APOBEC3A DNA Deaminase Inhibitors via a fluorescence-based single-stranded DNA deaminase assay. [Related pubchem assays (depositor defined):AID493011, AID493024]. In kind it is functional.
The target in assay [18] is DNA dC->dU-editing enzyme APOBEC-3G (Homo sapiens, UniProt Q9HC16). In kind it is functional.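 Note: Dose-response counterscreen measuring inhibition of APOBEC3G DNA deaminase activity, run while confirming APOBEC3A inhibitors.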
DNA dC->dU-editing enzyme APOBEC-3G, sequence (Q9HC16 whole entry): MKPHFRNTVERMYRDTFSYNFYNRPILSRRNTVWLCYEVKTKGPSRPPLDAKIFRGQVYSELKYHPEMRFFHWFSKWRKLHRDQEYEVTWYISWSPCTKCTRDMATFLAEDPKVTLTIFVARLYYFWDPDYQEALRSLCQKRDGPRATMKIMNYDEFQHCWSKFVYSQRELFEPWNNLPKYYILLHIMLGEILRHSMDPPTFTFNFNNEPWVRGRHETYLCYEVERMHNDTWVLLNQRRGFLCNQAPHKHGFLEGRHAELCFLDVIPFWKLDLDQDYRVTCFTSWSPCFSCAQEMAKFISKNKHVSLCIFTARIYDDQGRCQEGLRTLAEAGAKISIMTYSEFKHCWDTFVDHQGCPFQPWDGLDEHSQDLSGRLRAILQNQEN
Assay [19] concerns the target Eukaryotic translation initiation factor 4H (Homo sapiens, UniProt Q15056). The assay is described as follows: human eIF4H binding inhibitors, primary screen, translation initiation inhibitor project, biochemical, uHTS, fluorescence polarization (AID 2012).
Assay [20] has as its target T3, Polyadenylate-binding protein 1. The assay is described as follows: PABP poly(A) RNA binding inhibitors, primary screen, biochemical, fluorescence polarization, uHTS (AID 2014).

Activity calls are given as the source filed them.

Cytochrome P450 2C9, sequence (P11712 whole entry): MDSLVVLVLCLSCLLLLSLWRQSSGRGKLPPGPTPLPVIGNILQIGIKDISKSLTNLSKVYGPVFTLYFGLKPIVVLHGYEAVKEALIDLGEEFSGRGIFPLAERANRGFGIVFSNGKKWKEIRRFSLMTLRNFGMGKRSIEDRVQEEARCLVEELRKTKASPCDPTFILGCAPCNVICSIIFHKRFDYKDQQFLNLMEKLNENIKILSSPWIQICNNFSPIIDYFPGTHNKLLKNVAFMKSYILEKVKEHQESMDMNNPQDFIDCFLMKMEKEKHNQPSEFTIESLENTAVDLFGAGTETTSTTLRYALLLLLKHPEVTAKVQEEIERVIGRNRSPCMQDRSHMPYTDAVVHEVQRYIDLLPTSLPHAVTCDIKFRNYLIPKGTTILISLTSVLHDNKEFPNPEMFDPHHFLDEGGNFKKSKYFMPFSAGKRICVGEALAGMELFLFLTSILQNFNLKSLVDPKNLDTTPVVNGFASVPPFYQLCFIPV
Acyl-homoserine lactone acylase PvdQ, sequence (Q9I194 24-193 limits assumed): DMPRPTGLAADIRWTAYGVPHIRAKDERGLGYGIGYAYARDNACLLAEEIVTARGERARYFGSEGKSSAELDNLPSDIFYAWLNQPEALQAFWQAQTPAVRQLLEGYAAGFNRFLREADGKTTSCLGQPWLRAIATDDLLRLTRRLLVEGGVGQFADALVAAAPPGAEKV
Acyl-homoserine lactone acylase PvdQ, sequence (Q9I194 217-762 limits assumed): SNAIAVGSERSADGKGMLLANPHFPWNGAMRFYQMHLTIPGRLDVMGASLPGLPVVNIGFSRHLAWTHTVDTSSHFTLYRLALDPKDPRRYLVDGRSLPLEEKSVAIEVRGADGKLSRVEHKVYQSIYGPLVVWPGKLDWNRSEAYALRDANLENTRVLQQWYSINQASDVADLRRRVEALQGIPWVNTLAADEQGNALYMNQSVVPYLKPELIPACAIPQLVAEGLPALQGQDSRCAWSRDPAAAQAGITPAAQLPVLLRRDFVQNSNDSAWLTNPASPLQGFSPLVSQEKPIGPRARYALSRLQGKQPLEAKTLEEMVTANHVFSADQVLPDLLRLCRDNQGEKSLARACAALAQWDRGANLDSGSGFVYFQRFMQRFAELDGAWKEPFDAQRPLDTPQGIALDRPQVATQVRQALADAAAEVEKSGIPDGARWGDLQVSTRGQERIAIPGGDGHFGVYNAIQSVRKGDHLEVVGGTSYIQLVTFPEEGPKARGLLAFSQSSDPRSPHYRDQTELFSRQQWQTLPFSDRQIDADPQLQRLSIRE
Procathepsin L, sequence (P07711 whole entry): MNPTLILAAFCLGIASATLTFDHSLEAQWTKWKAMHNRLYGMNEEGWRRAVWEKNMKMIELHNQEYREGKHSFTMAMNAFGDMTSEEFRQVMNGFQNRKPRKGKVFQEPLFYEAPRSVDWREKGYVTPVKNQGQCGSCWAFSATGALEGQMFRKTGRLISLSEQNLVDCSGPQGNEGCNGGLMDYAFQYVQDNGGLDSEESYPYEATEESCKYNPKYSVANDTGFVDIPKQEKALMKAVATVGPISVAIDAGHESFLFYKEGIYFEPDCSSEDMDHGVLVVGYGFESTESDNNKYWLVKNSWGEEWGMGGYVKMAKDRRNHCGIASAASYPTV
DNA dC->dU-editing enzyme APOBEC-3A, sequence (P31941 whole entry): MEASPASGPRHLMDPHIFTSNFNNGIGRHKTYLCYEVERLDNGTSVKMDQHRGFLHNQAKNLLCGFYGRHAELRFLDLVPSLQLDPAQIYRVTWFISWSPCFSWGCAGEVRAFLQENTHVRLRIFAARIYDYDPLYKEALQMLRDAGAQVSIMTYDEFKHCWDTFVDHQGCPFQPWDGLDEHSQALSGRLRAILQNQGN
Neurotensin receptor type 1, sequence (P30989 whole entry): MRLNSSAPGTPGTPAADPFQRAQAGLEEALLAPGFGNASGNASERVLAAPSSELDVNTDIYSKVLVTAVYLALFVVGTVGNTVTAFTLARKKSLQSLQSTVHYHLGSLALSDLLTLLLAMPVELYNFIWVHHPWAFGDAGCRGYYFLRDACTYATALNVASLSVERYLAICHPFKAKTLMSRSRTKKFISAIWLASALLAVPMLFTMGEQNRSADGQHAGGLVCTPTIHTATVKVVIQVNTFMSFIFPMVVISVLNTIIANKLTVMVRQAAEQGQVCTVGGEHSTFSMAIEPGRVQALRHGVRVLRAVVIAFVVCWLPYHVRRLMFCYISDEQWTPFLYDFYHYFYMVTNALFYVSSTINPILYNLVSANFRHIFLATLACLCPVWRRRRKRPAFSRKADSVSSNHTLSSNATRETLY

On to `O=C(CSc1nnc[nH]1)OCN1C(=O)c2ccccc2C1=O`, for which the IC50 in [1] is 0.35 µM (active); in assay [2], 64.4 µM (active); in [3] it was > 59.6 µM (not active).

With `Cc1cc(C)nc(N(C#N)Cc2ccc(Cl)cc2)n1`, the AC50 in [4] was 21.9 µM (active).

On to `COc1cc(C(=O)N2CCN(c3ccccn3)CC2)cc(OC)c1OC`, for which the AC50 in assay [5] is 2.75 µM (active).

With `Cc1ccc[n+](-c2nc([O-])sc2C=NNc2ccc([N+](=O)[O-])cc2)c1`, the IC50 in [6] is 33.3 µM (inactive); in [7], > 66 µM (inactive); in [8] it was 10.1 µM (not active); in [9], 3.96 µM (active).

Take `Cc1ccc(NC2=NCCCS2)cc1Cl`: the concentration giving a half-maximal response (EC50) in assay [10] is > 50 µM (active).

Regarding `COc1cc2c(C#N)c(N3CCN(C)CC3)nc(N)c2c(N)n1`, the IC50 in assay [11] is > 100 µM (inactive). Further, in [12], the AC50 is 28.9 µM (active).

For the compound `NC(=O)c1cc([N+](=O)[O-])c(Cl)cc1NCc1cccnc1`, in assay [5], the AC50 is 14.3 µM (active).

Turning to `Cc1cc(C)nc(N(C#N)Cc2ccccc2)n1`, the AC50 in assay [4] is 9.18 µM (active).

As to `CCCCn1c(SCC(=O)N2CCC(C)CC2)nc2cc(S(N)(=O)=O)ccc21`, the EC50 in [13] was 20.7 µM (inactive).

For the compound `COc1nnc(-c2ccc(N3CCOCC3)c(NC(=O)c3ccc(C)cc3)c2)c2ccccc12`, the EC50 in [10] is > 50 µM (active).

Consider `NCCC[C@@H](CC(=O)N[C@@H]1CCCC[C@H]1C(=O)N[C@H](CC(=O)N[C@@H](CCC(=O)O)CC(=O)O)Cc1ccccc1)NC(=O)C[C@H](CO)NC(=O)[C@@H]1CCCC[C@H]1N`, for which the AC50 in assay [14] is 39.8 µM (inconclusive).

On to `COc1ccc(/C=N/c2c(-c3ccco3)nc3ccccn23)cc1OC`, for which the IC50 in assay [15] was 8.15 µM (inconclusive); in [8], 56.1 µM (not active); in [9], 3.71 µM (active). Besides, the half-maximal cytotoxic concentration (CC50) in assay [16] was > 40 µM (active).

As for `CCN1C(NCCOC)=N[C@@H](c2cccc(F)c2)C(C(=O)OC)=C1C`, the IC50 in [17] was 3.86 µM (active); in assay [18], 5.2 µM (active); in assay [19], > 100 µM (inactive); in [20], 12.8 µM (active).

On to `CN1CCN(c2ncc3nc(-c4cccc(C#N)c4)c(=O)n(C[C@H]4CCCO4)c3n2)CC1`, for which, in assay [14], the AC50 was 25.1 µM (inconclusive).

With `CCOC(=O)NC(=O)COC(=O)c1ccc(Sc2nnc[nH]2)c([N+](=O)[O-])c1`, the IC50 was 0.609 µM (active) in assay [1] and > 59.6 µM (not active) in assay [3].

`COc1ccc(-c2nc3n(n2)C(c2cccnc2)C(C(N)=O)=C(C)N3)cc1` (centres undefined): in [11], the IC50 was > 100 µM (inactive).

The term AC50 denotes the midpoint of the concentration-response curve, whichever way the signal moves. What is called EC50 is the midpoint of the concentration-response curve. As a reminder, the CC50 is the concentration that lowers cell viability or growth by half.
